The record followed here is patent US11331369B2, “Endoparasitic depsipeptides” (Zoetis Services LLC, priority 2017, dated 2022).

For this assay, the system named is microfilariae of Dirofilaria immitis. Put plainly: Dirofilaria immitis, Microfilaria (DiMF) In vitro Assay. In kind it is cell-based. To be noted: 72 h, read-out: DiMF Minimum Effective Dose (MED), approximately 72 hours incubation, microfilariae assessed for survival or paralysis.

Consider `Cc1nn(Cc2ccc(C[C@H]3OC(=O)[C@H](CC(C)C)N(C)C(=O)[C@@H](C)OC(=O)[C@H](CC(C)C)N(C)C(=O)[C@@H](Cc4ccccc4)OC(=O)[C@H](CC(C)C)N(C)C(=O)[C@@H](C)OC(=O)[C@H](CC(C)C)N(C)C3=O)cc2)c(C)c1O` [Example 2-44, (3S,6R,9S,12R,15S,18R,21S,24R)-6-benzyl-18-(4-((4-hydroxy-3,5-dimethyl-1H-pyrazol-1-yl)methyl)benzyl)-3,9,15,21-tetraisobutyl-4,10,12,16,22,24-hexamethyl-1,7,13,19-tetraoxa-4,10,16,22-tetraazacyclotetracosan-2,5,8,11,14,17,20,23-octaone], for which the minimal effective concentration was 0.001 to 0.01 µM. Then `Cc1ccc(OCc2cn(Cc3ccc(C[C@H]4OC(=O)[C@H](CC(C)C)N(C)C(=O)[C@@H](C)OC(=O)[C@H](CC(C)C)N(C)C(=O)[C@@H](Cc5ccccc5)OC(=O)[C@H](CC(C)C)N(C)C(=O)[C@@H](C)OC(=O)[C@H](CC(C)C)N(C)C4=O)cc3)nn2)cc1` [Example 10-21, (3S,6R,9S,12R,15S,18R,21S,24R)-6-benzyl-3,9,15,21-tetraisobutyl-4,10,12,16,22,24-hexamethyl-18-(4-((4-((p-tolyloxy)methyl)-1H-1,2,3-triazol-1-yl)methyl)benzyl)-1,7,13,19-tetraoxa-4,10,16,22-tetraazacyclotetracosan-2,5,8,11,14,17,20,23-octaone], with 0.01 to 0.1 µM; and `CC(C)C[C@H]1C(=O)O[C@H](C)C(=O)N(C)[C@@H](CC(C)C)C(=O)O[C@H](Cc2ccccc2)C(=O)N(C)[C@@H](CC(C)C)C(=O)O[C@H](C)C(=O)N(C)[C@@H](CC(C)C)C(=O)O[C@@H](Cc2ccc(CN3CCCCC3)cc2)C(=O)N1C` [Example 10-2, (3S,6R,9S,12R,15S,18S,21S,24R)-6-benzyl-3,9,15,21-tetraisobutyl-4,10,12,16,22,24-hexamethyl-18-(4-(piperidin-1-ylmethyl)benzyl)-1,7,13,19-tetraoxa-4,10,16,22-tetraazacyclotetracosan-2,5,8,11,14,17,20,23-octaone], with 0.01 to 0.1 µM; and `CC(C)C[C@H]1C(=O)O[C@H](Cc2ccc(Cn3ccc(I)n3)cc2)C(=O)N(C)[C@@H](CC(C)C)C(=O)O[C@H](C)C(=O)N(C)[C@@H](CC(C)C)C(=O)O[C@H](Cc2ccc(Cn3ccc(I)n3)cc2)C(=O)N(C)[C@@H](CC(C)C)C(=O)O[C@H](C)C(=O)N1C` [Example 1b-64, (3S,6R,9S,12R,15S,18R,21S,24R)-6,18-bis(4-((3-iodo-1H-pyrazol-1-yl)methyl)benzyl)-3,9,15,21-tetraisobutyl-4,10,12,16,22,24-hexamethyl-1,7,13,19-tetraoxa-4,10,16,22-tetraazacyclotetracosan-2,5,8,11,14,17,20,23-octaone], with 0.01 to 0.1 µM. With `CC(C)C[C@H]1C(=O)O[C@H](Cc2ccc(Cn3nc(CO)cc3CO)cc2)C(=O)N(C)[C@@H](CC(C)C)C(=O)O[C@H](C)C(=O)N(C)[C@@H](CC(C)C)C(=O)O[C@H](Cc2ccc(Cn3nc(C#N)cc3C#N)cc2)C(=O)N(C)[C@@H](CC(C)C)C(=O)O[C@H](C)C(=O)N1C` [Example 1a-2, 1-(4-(((2R,5S,8R,11S,14R,17S,20R,23S)-14-(4-((3,5-bis(hydroxymethyl)-1H-pyrazol-1-yl)methyl)benzyl)-5,11,17,23-tetraisobutyl-4,8,10,16,20,22-hexamethyl-3,6,9,12,15,18,21,24-octaoxo-1,7,13,19-tetraoxa-4,10,16,22-tetraazacyclotetracosan-2-yl)methyl)benzyl)-1H-pyrazole-3,5-dicarbonitrile], the minimal effective concentration fell in the range of 0.001 to 0.01 µM. `CC(=O)Nc1cnn(Cc2ccc(C[C@H]3OC(=O)[C@H](CC(C)C)N(C)C(=O)[C@@H](C)OC(=O)[C@H](CC(C)C)N(C)C(=O)[C@@H](Cc4ccccc4)OC(=O)[C@H](CC(C)C)N(C)C(=O)[C@@H](C)OC(=O)[C@H](CC(C)C)N(C)C3=O)cc2)c1` [Example 2-31, N-(1-(4-(((2R,5S,8R,11S,14R,17S,20R,23S)-14-benzyl-5,11,17,23-tetraisobutyl-4,8,10,16,20,22-hexamethyl-3,6,9,12,15,18,21,24-octaoxo-1,7,13,19-tetraoxa-4,10,16,22-tetraazacyclotetracosan-2-yl)methyl)benzyl)-1H-pyrazol-4-yl)acetamide]: the minimal effective concentration was 0.01 to 0.1 µM. For the compound `Cc1nn(Cc2ccc(C[C@H]3OC(=O)[C@H](CC(C)C)N(C)C(=O)[C@@H](C)OC(=O)[C@H](CC(C)C)N(C)C(=O)[C@@H](Cc4ccccc4)OC(=O)[C@H](CC(C)C)N(C)C(=O)[C@@H](C)OC(=O)[C@H](CC(C)C)N(C)C3=O)cc2)cc1Br` [Example 2-16, (3S,6R,9S,12R,15S,18R,21S,24R)-6-benzyl-18-(4-((4-bromo-3-methyl-1H-pyrazol-1-yl)methyl)benzyl)-3,9,15,21-tetraisobutyl-4,10,12,16,22,24-hexamethyl-1,7,13,19-tetraoxa-4,10,16,22-tetraazacyclotetracosan-2,5,8,11,14,17,20,23-octaone], the minimal effective concentration was in the range of 0.01 to 0.1 µM. Consider `CC(C)C[C@H]1C(=O)O[C@H](Cc2ccc(Cn3cc(-c4ccc(Cl)cc4)cn3)cc2)C(=O)N(C)[C@@H](CC(C)C)C(=O)O[C@H](C)C(=O)N(C)[C@@H](CC(C)C)C(=O)O[C@H](Cc2ccc(Cn3cccn3)cc2)C(=O)N(C)[C@@H](CC(C)C)C(=O)O[C@H](C)C(=O)N1C` [Example 1a-18, (3S,6R,9S,12R,15S,18R,21S,24R)-6-(4-((1H-pyrazol-1-yl)methyl)benzyl)-18-(4-((4-(4-chlorophenyl)-1H-pyrazol-1-yl)methyl)benzyl)-3,9,15,21-tetraisobutyl-4,10,12,16,22,24-hexamethyl-1,7,13,19-tetraoxa-4,10,16,22-tetraazacyclotetracosan-2,5,8,11,14,17,20,23-octaone], for which the minimal effective concentration was in the range of 0.01 to 0.1 µM. Take `Cc1cn(Cc2ccc(C[C@H]3OC(=O)[C@H](CC(C)C)N(C)C(=O)[C@@H](C)OC(=O)[C@H](CC(C)C)N(C)C(=O)[C@@H](Cc4ccc(Cn5cnc(C)c5)cc4)OC(=O)[C@H](CC(C)C)N(C)C(=O)[C@@H](C)OC(=O)[C@H](CC(C)C)N(C)C3=O)cc2)cn1` [Example 6-14, (3S,6R,9S,12R,15S,18R,21S,24R)-3,9,15,21-tetraisobutyl-4,6,10,16,18,22-hexamethyl-12,24-bis(4-((4-methyl-1H-imidazol-1-yl)methyl)benzyl)-1,7,13,19-tetraoxa-4,10,16,22-tetraazacyclotetracosan-2,5,8,11,14,17,20,23-octaone]: the minimal effective concentration is 0.01 to 0.1 µM.

For the compound `CC(C)C[C@H]1C(=O)O[C@H](Cc2ccc(Cn3cc(-c4ccccc4)cn3)cc2)C(=O)N(C)[C@@H](CC(C)C)C(=O)O[C@H](C)C(=O)N(C)[C@@H](CC(C)C)C(=O)O[C@H](Cc2ccc(Cn3cccn3)cc2)C(=O)N(C)[C@@H](CC(C)C)C(=O)O[C@H](C)C(=O)N1C` [Example 1a-15, (3S,6R,9S,12R,15S,18R,21S,24R)-6-(4-((1H-pyrazol-1-yl)methyl)benzyl)-3,9,15,21-tetraisobutyl-4,10,12,16,22,24-hexamethyl-18-(4-((4-phenyl-1H-pyrazol-1-yl)methyl)benzyl)-1,7,13,19-tetraoxa-4,10,16,22-tetraazacyclotetracosan-2,5,8,11,14,17,20,23-octaone], the minimal effective concentration was 0.01 to 0.1 µM.
